Measured values taken from patent US6955648B2, “Precision brain blood flow assessment remotely in real time using nanotechnology ultrasound” (New Health Sciences, Inc., priority 2000, dated 2005).

Tested on: cerebral vessels
Details: person after first stroke
Procedure: A person with a history of hypertension experiences a first stroke in the left middle cerebral artery resulting in deficits in the right hand, leg, and some deficits in motor speech. These are the symptoms upon presentation in the neurological clinic. Transcranial Doppler analysis of all cerebral vessels is performed in addition to analyzing the common carotid artery and the internal carotid artery.
The physician considers prescription of Plavix together with a calcium channel blocker. Transcranial Doppler analysis was performed at monthly intervals. […] The physician subsequently administers a higher dose. Again, transcranial Doppler analysis is performed on all cerebral vessels.

[1] = higher dose, transcranial Doppler on all cerebral vessels

With `COC(=O)[C@H](c1ccccc1Cl)N1CCc2sccc2C1` [Plavix] the “effect on the cerebral vessels (changes in the individual cerebral vessels)” value (Plavix +/− calcium channel blocker, initial dose, transcranial Doppler at monthly intervals) was “no effect”, the auto-regulation curve [1] was “left-shifts toward normal” and the pulsatility index [1] was “decreases”.
